We go through eleven compounds from ChEMBL document CHEMBL1201862, “PubChem BioAssay data set” (2004).

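Tested at 5 concentrations; 48 h exposure; 96-well plates; endpoints linearly interpolated, else capped at highest concentration. At the GI50, growth is halved.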 Calls of active or inactive are those of the source. No stated cut-off is given here; in the data, active = GI50 up to about 1.1 µM and inactive = higher. Where only a bound is given, the exact number is not on record here.

Among the test systems are NCI-H460; SF-295; PC-3; SK-OV-3; Hs-578T; OVCAR-8; HCT-116; MOLT-4; LOX IMVI; MDA-MB-231; HOP-62; UACC-62; UACC-257; K562; HT-29; SF-268; MCF7; CAKI-1; SNB-19; CCRF-CEM.
What all share (experiment): NCI anticancer screen, dose series, 48 h

For the compound `c1cc(CCN2CCCCC2)ccn1`, the GI50 in the experiment with NCI-H460, in the experiment on SF-295, with PC-3, in the experiment on SK-OV-3, in the experiment on Hs-578T and with OVCAR-8 was > 100 µM (inactive) each time. Further, the GI50 in the experiment with HCT-116 was > 100 µM (inactive); in the experiment on MOLT-4, 35.2 µM (inactive); with LOX IMVI it was > 100 µM (inactive); in the experiment on MDA-MB-231, > 100 µM (inactive); in the experiment on HOP-62 it was > 100 µM (inactive); with UACC-62, > 100 µM (inactive). Also, the GI50 with UACC-257, in the experiment on K562, in the experiment with HT-29, with SF-268, with MCF7 and in the experiment with CAKI-1 was > 100 µM (inactive) in each case. Further, in the experiment with SNB-19, the GI50 was > 100 µM (inactive).
Turning to `Cn1c2c(c3ccccc31)CCN1OCC=C[C@@H](C(=O)O)[C@@H]21`, the GI50 was > 100 µM (inactive) in the experiment on NCI-H460; > 100 µM (inactive) with PC-3; > 100 µM (inactive) with SK-OV-3; 31 µM (inactive) with Hs-578T; > 100 µM (inactive) with OVCAR-8; > 100 µM (inactive) with HCT-116. The GI50 in the experiment with LOX IMVI, in the experiment with MDA-MB-231, in the experiment on HOP-62, with UACC-62, in the experiment on UACC-257 and in the experiment on HT-29 was > 100 µM (inactive) in each case. Further, the GI50 in the experiment on SF-268, in the experiment on MCF7, in the experiment with CAKI-1 and in the experiment with SNB-19 was > 100 µM (inactive) each time.
`COC(=O)/C=C(\S/C=C(/c1ccccc1)N1CCn2c(C(=O)c3ccccc3)c(C(=O)OC)c(C(=O)OC)c21)C(=O)OC`: the GI50 in the experiment on NCI-H460 was > 10 µM (inactive); in the experiment with SF-295, > 10 µM (inactive); with PC-3 it was 6.25 µM (inactive); with SK-OV-3, > 10 µM (inactive); in the experiment on Hs-578T it was > 10 µM (inactive); in the experiment with OVCAR-8, 1.73 µM (inactive). Further, the GI50 is 2.34 µM (inactive) in the experiment on HCT-116; 1.79 µM (inactive) with MOLT-4; 0.733 µM (active) with CCRF-CEM; 1.47 µM (inactive) in the experiment with LOX IMVI; 2.69 µM (inactive) with MDA-MB-231; 2.69 µM (inactive) in the experiment on HOP-62. Also, the GI50 in the experiment on UACC-62 was > 10 µM (inactive); in the experiment with UACC-257, 3.07 µM (inactive); in the experiment with K562 it was 3.53 µM (inactive); in the experiment on HT-29, 2.77 µM (inactive); with MCF7, 1.42 µM (inactive); in the experiment with CAKI-1, 4.04 µM (inactive). Moreover, in the experiment with SNB-19, the GI50 was > 10 µM (inactive).
As for `Cc1ccc2c(=O)c(-c3nnsn3)c[nH]c2n1`, the GI50 in the experiment with NCI-H460, in the experiment on SF-295, in the experiment with PC-3, with Hs-578T, in the experiment on OVCAR-8 and in the experiment on HCT-116 was > 100 µM (inactive) in each case. Moreover, the GI50 in the experiment with MOLT-4, in the experiment with CCRF-CEM, in the experiment with LOX IMVI, in the experiment on MDA-MB-231, in the experiment on HOP-62 and with UACC-62 was > 100 µM (inactive) in each case. For the same compound, the GI50 in the experiment on UACC-257, in the experiment with K562, in the experiment with HT-29, in the experiment on SF-268, in the experiment on MCF7 and in the experiment with CAKI-1 was > 100 µM (inactive) in each case. For the same compound, the GI50 in the experiment with SNB-19 was > 100 µM (inactive).
With `COC(=O)/C=C(\C)CC(O)/C=C(\C)CCC=C(C)C` (stereo unspecified), the GI50 in the experiment with NCI-H460 is 49.7 µM (inactive); with SF-295 it was 38.1 µM (inactive); in the experiment on PC-3, 29.8 µM (inactive); in the experiment on SK-OV-3, > 100 µM (inactive); in the experiment on Hs-578T, 80 µM (inactive); in the experiment with OVCAR-8, 22.3 µM (inactive). Besides, the GI50 was 40.5 µM (inactive) with HCT-116; 18.7 µM (inactive) in the experiment with MOLT-4; 30.8 µM (inactive) with CCRF-CEM; 29.4 µM (inactive) in the experiment on LOX IMVI; > 100 µM (inactive) with MDA-MB-231; > 100 µM (inactive) in the experiment on HOP-62. Also, the GI50 in the experiment on UACC-62 is 40.7 µM (inactive); in the experiment with UACC-257 it was 47.4 µM (inactive); in the experiment on K562 it was 32.1 µM (inactive); with HT-29 it was 24.1 µM (inactive); in the experiment on MCF7, 31.4 µM (inactive); in the experiment with CAKI-1, 92.7 µM (inactive). In the experiment with SNB-19, the GI50 was > 100 µM (inactive).
As to `Cc1ccc(S(=O)(=O)N2c3ccccc3[C@H]3CCC=C[C@H]32)cc1`, the GI50 was 6.56 µM (inactive) with NCI-H460; 3.91 µM (inactive) in the experiment on SF-295; 11.2 µM (inactive) with PC-3; 2.54 µM (inactive) with SK-OV-3; 15.4 µM (inactive) in the experiment with Hs-578T; 20.5 µM (inactive) in the experiment on OVCAR-8. In addition, the GI50 with HCT-116 was 5.86 µM (inactive); in the experiment with MOLT-4, 4.81 µM (inactive); with CCRF-CEM, 6.9 µM (inactive); with LOX IMVI, 10.4 µM (inactive); in the experiment on MDA-MB-231, 49.2 µM (inactive); with HOP-62, 7.46 µM (inactive). In addition, the GI50 in the experiment on UACC-62 is 4.82 µM (inactive); in the experiment on UACC-257 it was 10.1 µM (inactive); in the experiment with K562, 3.38 µM (inactive); with HT-29 it was 3.45 µM (inactive); with SF-268, 10.9 µM (inactive); in the experiment with MCF7, 3.81 µM (inactive). The GI50 in the experiment on CAKI-1 is 12.1 µM (inactive); in the experiment on SNB-19, 25.6 µM (inactive).
Take `Oc1ccc2ccccc2c1CCc1c(O)ccc2ccccc12`: the GI50 in the experiment on NCI-H460 was 10.4 µM (inactive); in the experiment with SF-295, 11.7 µM (inactive); with PC-3, 13.9 µM (inactive); in the experiment on SK-OV-3 it was 15.8 µM (inactive); in the experiment with Hs-578T, 16.2 µM (inactive); with OVCAR-8, 14.5 µM (inactive). The GI50 in the experiment on HCT-116 is 12.6 µM (inactive); in the experiment on CCRF-CEM, 11.9 µM (inactive); with LOX IMVI, 14.3 µM (inactive); with MDA-MB-231, 14.1 µM (inactive); in the experiment with HOP-62, 13.5 µM (inactive); in the experiment with UACC-62, 9.29 µM (inactive). The GI50 in the experiment on UACC-257 is 13.9 µM (inactive); in the experiment on K562, 7.55 µM (inactive); with HT-29 it was 4.41 µM (inactive); with SF-268, 11 µM (inactive); in the experiment on MCF7 it was 12.7 µM (inactive); in the experiment on CAKI-1, 7.45 µM (inactive). The GI50 in the experiment with SNB-19 is 16.9 µM (inactive).
Turning to `CC1=C(C(=O)c2ccccc2)C23C(=O)N(c4ccccc4)C(=O)C2=C(O)C=CC3(O)N1` (stereo unspecified), the GI50 is 40.8 µM (inactive) with NCI-H460; 43.4 µM (inactive) with SF-295; 28.4 µM (inactive) in the experiment on PC-3; > 100 µM (inactive) with Hs-578T; 34 µM (inactive) in the experiment with OVCAR-8; 37.9 µM (inactive) with HCT-116. The GI50 in the experiment with CCRF-CEM is 35.1 µM (inactive); in the experiment on LOX IMVI, 19.8 µM (inactive); in the experiment with MDA-MB-231, 28 µM (inactive); with HOP-62 it was 32.5 µM (inactive); in the experiment on UACC-62 it was 20.1 µM (inactive); with UACC-257, 44.5 µM (inactive). The GI50 was 10.9 µM (inactive) in the experiment with K562; 13.6 µM (inactive) with HT-29; 38.6 µM (inactive) in the experiment on SF-268; 38.3 µM (inactive) in the experiment on MCF7; 28.9 µM (inactive) with CAKI-1; 37.9 µM (inactive) in the experiment on SNB-19.
On to `CC(C)(C)OC(=O)NCC(C#N)CNC(=O)OC(C)(C)C`, for which the GI50 with NCI-H460, in the experiment on SF-295, with PC-3, in the experiment with SK-OV-3, in the experiment with Hs-578T and in the experiment with OVCAR-8 was > 100 µM (inactive) in each case. Besides, the GI50 in the experiment with HCT-116, with MOLT-4, in the experiment with CCRF-CEM, with LOX IMVI, in the experiment on MDA-MB-231 and in the experiment with HOP-62 was > 100 µM (inactive) each time. Moreover, the GI50 in the experiment on UACC-62 is > 100 µM (inactive); with UACC-257, > 100 µM (inactive); with K562 it was > 100 µM (inactive); with SF-268, > 100 µM (inactive); with MCF7, > 100 µM (inactive); in the experiment on CAKI-1 it was > 10 µM (inactive). Besides, the GI50 in the experiment with SNB-19 is > 100 µM (inactive).
Turning to `Cc1ccccc1C(=O)NC(O)(C(F)(F)F)C(F)(F)F`, the GI50 was 84.9 µM (inactive) in the experiment with NCI-H460; > 100 µM (inactive) with SF-295; 25.5 µM (inactive) with PC-3; > 100 µM (inactive) with SK-OV-3; 22.5 µM (inactive) in the experiment with Hs-578T; > 100 µM (inactive) with OVCAR-8. In addition, the GI50 in the experiment on HCT-116 was > 100 µM (inactive); with MOLT-4 it was 35.9 µM (inactive); in the experiment on CCRF-CEM it was 58.3 µM (inactive); in the experiment with LOX IMVI it was > 100 µM (inactive); in the experiment on MDA-MB-231, > 100 µM (inactive); in the experiment with HOP-62, > 100 µM (inactive). For the same compound, the GI50 in the experiment with UACC-257 is 61.9 µM (inactive); in the experiment on K562, 57.9 µM (inactive); with HT-29, 91.2 µM (inactive); in the experiment on SF-268 it was > 100 µM (inactive); in the experiment on MCF7, > 100 µM (inactive); with CAKI-1 it was > 100 µM (inactive). Further, the GI50 in the experiment with SNB-19 is > 100 µM (inactive).
Turning to `C[n+]1c2ccccc2c(C(=O)Nc2ccc(S(=O)(=O)Nc3ncccn3)cc2)c2ccccc21`, the GI50 with NCI-H460 was > 100 µM (inactive); in the experiment with SF-295, > 100 µM (inactive); with PC-3, 57 µM (inactive); in the experiment on SK-OV-3, > 100 µM (inactive); in the experiment on Hs-578T, > 100 µM (inactive); in the experiment on OVCAR-8, > 100 µM (inactive). Further, the GI50 was 72.6 µM (inactive) with HCT-116; 25.8 µM (inactive) in the experiment on MOLT-4; 79.3 µM (inactive) with LOX IMVI; 71.9 µM (inactive) with MDA-MB-231; > 100 µM (inactive) with HOP-62; > 100 µM (inactive) with UACC-62. Moreover, the GI50 was > 100 µM (inactive) in the experiment on UACC-257; 97.5 µM (inactive) with K562; > 100 µM (inactive) in the experiment on HT-29; > 100 µM (inactive) with SF-268; > 100 µM (inactive) in the experiment on MCF7; > 100 µM (inactive) in the experiment with CAKI-1. Moreover, in the experiment on SNB-19, the GI50 is > 100 µM (inactive).
